From patent US12534469B2 (CHILDREN'S HOSPITAL MEDICAL CENTER, priority 2020, dated 2026)
“Also recorded” adds a separate entry of the source. Like-named read-outs stand apart in the source and are kept apart here.

Experiments:
FLT3 ITD = target: T1, FLT3 ITD (Homo sapiens, UniProt P36888, ITD); test: DiscoverX KINOMEscan competition binding assay, FLT3 ITD
T1 sequence (P36888 564-993): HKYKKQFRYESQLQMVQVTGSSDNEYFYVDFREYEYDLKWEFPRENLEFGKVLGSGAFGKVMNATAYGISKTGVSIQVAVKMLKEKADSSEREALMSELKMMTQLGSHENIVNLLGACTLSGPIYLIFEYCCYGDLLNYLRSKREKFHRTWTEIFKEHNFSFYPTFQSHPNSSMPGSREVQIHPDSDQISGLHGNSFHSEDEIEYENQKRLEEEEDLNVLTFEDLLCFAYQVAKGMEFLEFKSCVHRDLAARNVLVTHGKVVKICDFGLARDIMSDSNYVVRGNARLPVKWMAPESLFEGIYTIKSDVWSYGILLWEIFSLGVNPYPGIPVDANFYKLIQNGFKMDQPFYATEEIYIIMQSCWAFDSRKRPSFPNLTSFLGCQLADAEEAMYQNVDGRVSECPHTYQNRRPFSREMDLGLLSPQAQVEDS
Excerpt: (§1) Kinase binding data were obtained for various exemplary compounds prepared according to Examples 1-25 using the DiscoverX KINOMEscan® active site-directed competition binding site-directed assay protocol described below. […] As a result, the data report thermodynamic interaction affinities (Kd values), rather than IC50 values that are dependent on ATP concentrations. The assay uses a DNA-tagged version of the protein kinase, and an immobilized ligand bound to a solid support. Compounds that directly or indirectly prevent kinase binding to the immobilized ligand reduce the amount of kinase captured on the solid support, which is detected using an ultra-sensitive qPCR method. Affinity constants reported from the assay have been reported to be independent of the immobilized ligand used that is coupled to the solid support (See supplemental information in Fabian, M. A. et. al., (2005) Nat. Biotechnol. 23, 329-336; Wodicka, L. M. et. al., (2010) Chem. Biol. 17, 1241-1249.)
(§2) Kinase-tagged T7 phage strains were prepared in an E. coli host derived from the BL21 strain. E. coli were grown to log-phase and infected with T7 phage and incubated with shaking at 32° C. until lysis. The lysates were centrifuged and filtered to remove cell debris. The remaining kinases were produced in HEK-293 cells and subsequently tagged with DNA for qPCR detection. […] The liganded beads were blocked with excess biotin and washed with blocking buffer (SeaBlock (Pierce), 1% BSA, 0.05% Tween 20, 1 mM DTT) to remove unbound ligand and to reduce non-specific binding. […] Test compounds were prepared as 111× stocks in 100% DMSO. Kds were determined using an 11-point 3-fold compound dilution series with three DMSO control points. […] The compounds were then diluted directly into the assays such that the final concentration of DMSO was 0.9%. All reactions were performed in polypropylene 384-well plates. Each was a final volume of 0.02 mL. […] The kinase concentration in the eluates was measured by qPCR.
(§3) Binding constants (Kds) were calculated with a standard dose-response curve using the Hill equation. […]

MOLM14 (D835Y) cells = test: Combination drug screening, 10 x 10 matrix, cell viability (Cell Titer Glo); format: cell-based; settings: for Interaction with Venetoclax / Sum Excess HSA: combination with Venetoclax, 10 x 10 dataset; for Sum Excess HSA: 48 hours
Experimental: Briefly, 10 nL of compounds were acoustically dispensed into 1536-well white polystyrene tissue culture-treated plates with an Echo 550 acoustic liquid handler (Labcyte). MOLM14 (D835Y) cells were then added to compound-containing plates at a density of 500-cells/well in 5 μL of medium. A 10-point custom concentration range was used for all listed drugs. Plates were incubated for 48 hours at standard incubator conditions covered by a stainless steel gasketed lid to prevent evaporation. 48 h post compound addition, 3 μL of Cell Titer Glo (Promega) were added to each well and plates were incubated at room temperature for 15 minutes with the stainless-steel lid in place. Luminescence readings were taken using a Viewlux imager (PerkinElmer) with a 2 second exposure time per plate.
However, different methodologies may yield different numerical scores, and different definitions of what constitutes a deviation from mere additivity vs true drug synergy.
However, the utility in certain drug combinations vs others should not be distinguished based on cutoffs between HSA scores, because the score itself is only a relative indicator that is completely dependent on experimental design and is not an absolute number. Furthermore, the concept of what constitutes clinically meaningful drug synergy is something that is still being debated, not only between pharmacologists and physicians, but amongst pharmacologists themselves.

FLT3 D835H = target: T2, FLT3 D835H (Homo sapiens, UniProt P36888, D835H); test: DiscoverX KINOMEscan competition binding assay, FLT3 D835H
T2 construct: purchased DiscoverX (KINOMEscan); host or cells: E. coli (T7 phage) or HEK-293
T2 sequence (P36888 27-993 D835H): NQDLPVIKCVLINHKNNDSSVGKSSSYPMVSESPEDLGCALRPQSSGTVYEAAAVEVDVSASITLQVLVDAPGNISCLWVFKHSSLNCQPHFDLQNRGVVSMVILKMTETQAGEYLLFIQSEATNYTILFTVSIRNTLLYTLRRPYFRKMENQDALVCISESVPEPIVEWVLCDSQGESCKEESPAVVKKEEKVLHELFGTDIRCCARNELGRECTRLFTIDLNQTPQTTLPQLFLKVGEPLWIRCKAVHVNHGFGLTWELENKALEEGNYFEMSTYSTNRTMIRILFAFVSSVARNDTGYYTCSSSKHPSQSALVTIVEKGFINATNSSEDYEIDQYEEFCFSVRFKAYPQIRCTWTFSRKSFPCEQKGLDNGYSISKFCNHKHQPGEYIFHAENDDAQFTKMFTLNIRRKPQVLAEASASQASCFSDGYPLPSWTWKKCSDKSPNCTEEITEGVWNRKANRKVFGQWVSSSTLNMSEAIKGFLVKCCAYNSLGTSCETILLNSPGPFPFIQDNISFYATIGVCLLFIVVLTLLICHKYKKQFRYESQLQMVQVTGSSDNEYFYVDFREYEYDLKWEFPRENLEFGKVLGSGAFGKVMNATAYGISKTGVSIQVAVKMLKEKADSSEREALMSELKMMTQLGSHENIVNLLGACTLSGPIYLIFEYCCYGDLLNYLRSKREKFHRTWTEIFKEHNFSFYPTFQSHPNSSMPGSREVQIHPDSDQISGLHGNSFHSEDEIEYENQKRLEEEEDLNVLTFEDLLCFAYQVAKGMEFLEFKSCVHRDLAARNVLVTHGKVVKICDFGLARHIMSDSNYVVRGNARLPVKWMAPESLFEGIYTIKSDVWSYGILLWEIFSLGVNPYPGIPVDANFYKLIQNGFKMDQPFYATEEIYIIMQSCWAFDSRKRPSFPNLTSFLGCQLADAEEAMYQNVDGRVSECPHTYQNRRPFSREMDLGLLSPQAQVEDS
Excerpt: as §1, §2, §3

Row | SMILES | Kd (FLT3 ITD; read-out: FLT3 ITD Kd) | Kd (FLT3 D835H) | Kd (FLT3 ITD) | Interaction with Venetoclax (MOLM14 (D835Y) cells) | Sum Excess HSA (MOLM14 (D835Y) cells) | concentration of compound required to fully potentiate a 7.8 nM concentration of Venetoclax to <5% of the maximum response (MOLM14 (D835Y) cells; 7.8 nM Venetoclax, 10×10 combination) | concentration at which synergy (Delta Bliss score) is highest (MOLM14 (D835Y) cells; combined with 15.6 nM Venetoclax, 10×10 array)
1 | COc1cc2ncc(-c3nc(N[C@@H]4CCCNC4)c(F)cc3F)n2nc1C1CC1 [Compound 106, (R)-6-(6-cyclopropyl-7-methoxyimidazo[1,2-b]pyridazin-3-yl)-3,5-difluoro-N-(piperidin-3-yl)pyridin-2-amine] |  |  |  | profound synergism | −334 | 3.1 nM | 
2 | COc1cc2ncc(-c3cccc(N[C@H]4CNC[C@@H]4C(F)(F)F)n3)n2nc1C1CC1 [Compound 99, 6-(6-cyclopropyl-7-methoxyimidazo[1,2-b]pyridazin-3-yl)-N-((3R,4S)-4-(trifluoromethyl)pyrrolidin-3-yl)pyridin-2-amine] |  |  |  | profound synergism; also recorded: Synergistic | −789.4 |  | 
3 | COc1cc2ncc(-c3nc(N[C@H]4CNCC[C@@H]4F)c(F)cc3F)n2nc1C1CC1 [Compound 108, 6-(6-cyclopropyl-7-methoxyimidazo[1,2-b]pyridazin-3-yl)-3,5-difluoro-N-((3S,4S)-4-fluoropiperidin-3-yl)pyridin-2-amine] |  |  |  | profound synergism | −480.4 |  | 0.8 to 1.6 nM

More lines, main results first:

Row | Kd (FLT3 ITD; read-out: FLT3 ITD Kd) | Kd (FLT3 D835H) | Kd (FLT3 ITD) | SMILES | Interaction with Venetoclax (MOLM14 (D835Y) cells) | Sum Excess HSA (MOLM14 (D835Y) cells) | concentration of compound required to fully potentiate a 7.8 nM concentration of Venetoclax to <5% of the maximum response (MOLM14 (D835Y) cells; 7.8 nM Venetoclax, 10×10 combination) | concentration at which synergy (Delta Bliss score) is highest (MOLM14 (D835Y) cells; combined with 15.6 nM Venetoclax, 10×10 array)
4 | 0.54 nM | 0.21 nM |  | COc1cc2ncc(-c3cccc(N[C@H]4CNCC[C@@H]4F)n3)n2nc1C1CC1 [Compound 102, 6-(6-cyclopropyl-7-methoxyimidazo[1,2-b]pyridazin-3-yl)-N-((3S,4S)-4-fluoropiperidin-3-yl)pyridin-2-amine] | profound synergism | −188.8 |  | 
5 |  | 0.23 nM | 1 nM | COc1cc2ncc(-c3cccc(N[C@H]4CNC[C@@H]4F)n3)n2nc1C1CC1 [Compound 96, 6-(6-cyclopropyl-7-methoxyimidazo[1,2-b]pyridazin-3-yl)-N-((3S,4S)-4-fluoropyrrolidin-3-yl)pyridin-2-amine] | profound synergism | −543.2 |  | 
6 | 0.19 nM | 0.18 nM |  | COc1cc2ncc(-c3cccc(N[C@@H]4CCNC4)n3)n2nc1C1CC1 [Compound 97, (R)-6-(6-cyclopropyl-7-methoxyimidazo[1,2-b]pyridazin-3-yl)-N-(pyrrolidin-3-yl)pyridin-2-amine] |  |  |  | 
